Data taken from patent US9969771B2, “Tetrapeptide having effect of inhibiting VEGF-induced angiogenesis and use thereof” (AVIXGEN INC., priority 2015, dated 2018).
Where a SMILES comes first, the peptide text is derived from it. Where no end group is shown, it is not given here. The star is where a group is joined. FITC = O=C1OC2(c3ccc(O)cc3Oc3cc(O)ccc32)c2ccc(NC(=S)*)cc21

How the values were obtained:
[1] = tested on: HUVECs; experiment: VEGF-induced HUVEC proliferation, [3H]-thymidine incorporation assay; assay type: cell-based, human; conditions: for IC50: 3 h; for inhibition of VEGF-induced HUVEC proliferation: VEGF 10 ng/ml, [3H]-thymidine incorporation
Procedure: Human umbilical vein endothelial cells (HUVECs) were cultured in M199 medium, and during experiments, the cells were always used at passages 2 to 7. Meanwhile, mouse melanoma cells (B16F1 and B16F10) and human colorectal tumor cells (HCT116) were cultured in RPMI media supplemented with 10% FBS, 1 mM sodium pyruvate, 10 mM 4-(2-hydroxyethyl)-1-piperazineethanesulfonic acid and 100 U/ml penicillin-streptomycin, and human multiple myeloma cells (IM-9 and RPMI 8226) were cultured in RPMI-1640 media. All of the cells were cultured at 37° C. with 5% CO2 in a humidified incubator.
Angiogenic activity was determined by measuring cell proliferation, migration and tube formation. HUVEC proliferation was analyzed by a [3H]-thymidine incorporation assay. The HUVECs were seeded in a 24-well plate coated with gelatin at a density of 2×10^4 cells/well. […] […] […] 3H-labeled polymer DNA was evaluated with a liquid scintillation counter.

[2] = tested on: ERK; experiment: Western blot, ERK phosphorylation in HUVECs; assay type: cell-based, human; conditions: VEGF / VEGF-A stimulated
Procedure: Cells were lyzed in RIPA buffer, and 50 μg of proteins were isolated by SDS-PAGE and then transferred to a PVDF membrane. The membrane was reacted with an antibody with respect to a target protein for 2 hours. The membrane was washed twice and reacted with a horseradish peroxidase-conjugated antibody, and then an amount of the target proteins was assessed with an enhanced chemiluminescence system.

[3] = tested on: zebrafish; experiment: Zebrafish angiogenesis assay; assay type: in vivo; conditions: zebrafish embryo
Procedure: An adult zebrafish and an embryo were grown and maintained in a standard laboratory environment, and a zebrafish experiment was conducted according to the protocols approved by the animal ethics committee of Chungnam National University. To analyze angiogenesis, at 48 hours post fertilization (hpf), the embryo was anesthetized with tricaine (MS-222, 0.02%, embryo buffer), a peptide was administered, and FITC-dextran (2,000 kDa, Sigma) was further injected. A blood vessel image was obtained with a Leica DM5000B system at 72 hpf. As a probe for whole mount in situ hybridization, digoxigenin (DIG)-labeled RNA prepared by a cad5 (NM_001003983) gene was used. Meanwhile, a peptide was injected into the 18-hpf embryo collected at 25 hpf, fixed with 4% paraformaldehyde, washed with PBS (in 0.1% Tween20), and hybridized with DIG-labeled riboprobes (hybridization buffer). Subsequently, the resulting product was reacted with an alkaline phosphatase (AP)-conjugated anti-DIG antibody. Following reaction with an AP staining solution, a staining status was observed and visualized under a microscope (Leica, MZ-16).

[4] = tested on: HUVECs; experiment: FACS analysis of FITC-RLYE binding to HUVECs; set-up: species or system human
Procedure: HUVECs were cultured in a 60-mm culture plate for 24 hours. The cells were isolated from the plate with 5 mM EDTA-containing phosphate-buffered saline (PBS), washed with PBS three times, and suspended in 2% FBS/0.1% bovine serum albumin-containing PBS. Afterward, before or after the reaction with FITC-conjugated RLYE (SEQ ID NO: 2) (15 nM), the cells were treated with VEGF (100 ng/ml), stored on ice for 30 minutes, fixed in 2% paraformaldehyde, and assessed with a fluorescence activated cell sorter (FACS Calibur, Becton Dickinson) by flow cytometry.

| Compound | IC50 [1] | inhibition of VEGF-induced HUVEC proliferation [1] | inhibition of VEGF-induced ERK phosphorylation [2] | also measured |
| --- | --- | --- | --- | --- |
| CC(C)C[C@H](NC(=O)[C@@H](N)CCCCN)C(=O)N[C@@H](Cc1ccc(O)cc1)C(=O)N[C@@H](CC(=O)O)C(=O)O [KLYD, reference compound] (H-KLYD-OH; N-terminus and C-terminus assumed) | 0.79 nM | significantly inhibited |  |  |
| CC(C)C[C@H](NC(=O)[C@@H](N)CCCCN)C(=O)N[C@@H](Cc1ccc(O)cc1)C(=O)N[C@@H](CCC(=O)O)C(=O)O [KLYE] (H-KLYE-OH; N-terminus and C-terminus assumed) | 0.3 nM | effectively inhibited | more effectively inhibited |  |
| CC(C)C[C@H](NC(=O)[C@@H](N)CCCNC(=N)N)C(=O)N[C@@H](Cc1ccc(O)cc1)C(=O)N[C@@H](CC(=O)O)C(=O)O [RLYD] (H-RLYD-OH; N-terminus and C-terminus assumed) | 0.14 nM | effectively inhibited | more effectively inhibited |  |
| CC(C)[C@H](NC(=O)[C@@H](N)CCCNC(=N)N)C(=O)N[C@@H](Cc1ccc(O)cc1)C(=O)N[C@@H](CCC(=O)O)C(=O)O [RVYE] (H-RVYE-OH; N-terminus and C-terminus assumed) | 0.39 nM | effectively inhibited | more effectively inhibited |  |
| EYLR: scrambled peptide against RLYE, used as a control [reference compound] |  | did not exhibit a significant inhibitory effect |  | formation of intersegmental vessels (ISV) [3]: did not affect the ISV formation; formation of subintestinal vessels (SIV) [3]: did not affect the SIV formation |
| FITC-RLYE: FITC-conjugated RLYE (SEQ ID NO: 2) peptide used for FACS and confocal binding ({FITC}-RLYE) |  |  |  | binding to HUVEC surface (FACS) ([4]; VEGF-A-pretreated cells): did not bind; binding to HUVEC surface (FACS) ([4]; cells not treated with VEGF-A): bound to a cell surface |
| KIYD: synthesized tetrapeptide based on KLYD |  | inhibitory effect similar to the positive control |  |  |
| KLFD: synthesized tetrapeptide based on KLYD |  | inhibitory effect similar to the positive control |  |  |
| KLWD: synthesized tetrapeptide based on KLYD |  | did not exhibit a significant inhibitory effect |  |  |
| RLME: synthesized tetrapeptide based on KLYD |  | did not exhibit a significant inhibitory effect |  |  |
